In US12234221B2, “Pyridine carboxamide compounds for inhibiting NAV1.8” (Lieber Institute, Inc., priority 2018, dated 2025):

These compounds were tested against T1, human Nav1.8 (hNav1.8) ion channel (Homo sapiens, UniProt Q9Y5Y9) (assay: Nav1.8 channel inhibition, estimated IC50 (one or more of: fluorescence inhibition assay, PatchXpress, IonFlux HT automated patch clamp)). Settings: HEK293 cells stably expressing hNav1.8; method used per compound not stated; read-out: Activity range (estimated IC50).
T1 construct: expressed in transfected cells; host or cells: HEK293
T1 sequence (Q9Y5Y9 whole entry): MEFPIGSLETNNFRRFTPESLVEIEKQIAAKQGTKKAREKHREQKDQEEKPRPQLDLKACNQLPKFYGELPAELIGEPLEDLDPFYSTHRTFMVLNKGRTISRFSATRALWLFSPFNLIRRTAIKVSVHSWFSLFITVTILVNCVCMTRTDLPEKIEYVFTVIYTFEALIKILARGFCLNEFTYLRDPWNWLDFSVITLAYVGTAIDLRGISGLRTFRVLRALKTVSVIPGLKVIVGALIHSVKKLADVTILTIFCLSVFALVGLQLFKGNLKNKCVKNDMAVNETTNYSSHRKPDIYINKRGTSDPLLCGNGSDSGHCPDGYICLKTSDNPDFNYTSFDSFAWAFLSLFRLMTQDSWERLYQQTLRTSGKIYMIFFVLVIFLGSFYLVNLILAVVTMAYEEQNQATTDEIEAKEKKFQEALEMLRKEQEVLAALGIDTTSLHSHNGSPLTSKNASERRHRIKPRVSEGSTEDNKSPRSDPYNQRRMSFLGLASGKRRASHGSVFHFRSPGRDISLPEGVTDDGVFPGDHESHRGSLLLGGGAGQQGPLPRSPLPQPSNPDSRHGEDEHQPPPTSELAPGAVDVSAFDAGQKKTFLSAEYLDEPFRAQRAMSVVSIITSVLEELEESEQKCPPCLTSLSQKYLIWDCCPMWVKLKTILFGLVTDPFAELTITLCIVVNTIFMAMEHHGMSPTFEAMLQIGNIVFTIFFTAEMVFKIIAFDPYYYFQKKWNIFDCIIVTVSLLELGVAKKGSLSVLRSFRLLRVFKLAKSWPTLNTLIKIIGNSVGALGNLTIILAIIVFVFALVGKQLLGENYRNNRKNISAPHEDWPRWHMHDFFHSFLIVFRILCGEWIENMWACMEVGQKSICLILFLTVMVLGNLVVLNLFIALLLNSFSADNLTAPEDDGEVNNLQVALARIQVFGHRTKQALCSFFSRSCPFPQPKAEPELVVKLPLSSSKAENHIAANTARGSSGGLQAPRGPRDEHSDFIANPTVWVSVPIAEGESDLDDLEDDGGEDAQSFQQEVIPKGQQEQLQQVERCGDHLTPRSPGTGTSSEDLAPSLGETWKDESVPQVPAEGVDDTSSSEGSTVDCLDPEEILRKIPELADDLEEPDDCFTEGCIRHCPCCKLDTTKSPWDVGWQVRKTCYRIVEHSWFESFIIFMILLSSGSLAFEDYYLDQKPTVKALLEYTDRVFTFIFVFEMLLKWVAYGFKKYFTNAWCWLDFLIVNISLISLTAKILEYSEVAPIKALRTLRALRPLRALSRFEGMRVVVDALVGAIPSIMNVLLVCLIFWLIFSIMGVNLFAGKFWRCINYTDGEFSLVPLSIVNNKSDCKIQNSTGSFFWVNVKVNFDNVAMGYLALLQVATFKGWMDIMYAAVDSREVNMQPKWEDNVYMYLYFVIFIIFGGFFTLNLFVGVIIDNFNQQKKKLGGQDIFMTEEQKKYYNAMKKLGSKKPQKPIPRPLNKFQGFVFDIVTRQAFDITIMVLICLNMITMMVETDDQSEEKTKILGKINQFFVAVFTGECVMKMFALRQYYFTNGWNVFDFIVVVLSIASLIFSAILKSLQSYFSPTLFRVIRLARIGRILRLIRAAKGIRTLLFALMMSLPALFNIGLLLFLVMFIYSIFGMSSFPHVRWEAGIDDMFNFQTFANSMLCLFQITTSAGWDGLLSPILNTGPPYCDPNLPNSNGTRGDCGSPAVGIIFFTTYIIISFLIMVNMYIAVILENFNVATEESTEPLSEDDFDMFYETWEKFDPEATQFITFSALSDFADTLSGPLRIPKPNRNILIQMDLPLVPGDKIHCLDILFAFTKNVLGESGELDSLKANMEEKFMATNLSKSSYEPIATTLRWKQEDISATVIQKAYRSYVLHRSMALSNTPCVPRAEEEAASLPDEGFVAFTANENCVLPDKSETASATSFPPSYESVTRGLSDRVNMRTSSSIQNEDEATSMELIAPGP
Type: cell-based
Procedure: The ability of pyridine carboxamide derivatives exemplified above to inhibit the Nav1.8 channel was determined using one or more of the methods described below.
HEK Nav1.8 β1/β2 Stably Expressing Cell Line
A HEK293 cell line stably expressing the human Nav1.8 (hNav1.8) ion channel with β1/β2 subunits was constructed. The cell line is suitable for IC50 determination in fluorescence and electrophysiological based assays. It is also suitable to form mechanism of action pharmacology studies in electrophysiological assays. HEK293 Nav 1.8 cells are grown as adherent monolayers in DMEM/high glucose media, 10% fetal bovine serum, Na pyruvate (2 mM), Hepes (10 mM) with selection agents G418 (400 mg/L) and puromycin (0.5 mg/L) at 37 degrees C., 10% CO2.
Nav 1.8 Fluorescence Inhibition Assay
Compounds were made up to or supplied as a 10-mM stock solution using DMSO as the vehicle. Concentration-response curves were generated using a Matrix multichannel pipettor. Compound source plates were made by diluting 10 mM compound stocks to create 500 μM (100×) solutions in DMSO in 96-well v-bottom plates. Compounds were then serially diluted in 100% DMSO to generate a 5 point, 4-fold dilution scheme dose response curve. 2 μL of the 100× dose response curves was then added to preincubation and stimulation assay plates. 100 μL of pre-incubation buffer and 200 μL of stimulation buffer were then added to the plates resulting in a final assay test concentration range of 5 μM to 0.02 μM with a final DMSO concentration of 1%.
On the day of assay, plates were washed to remove cell culture media using 2K EBSS buffer (135 mM NaCl, 2 mM KCl, 5 mM Glucose, 2 mM CaCl2), 1 mM MgCl2, 10 mM HEPES, pH 7.4). The Na-sensitive fluorescent dye, Asante Natrium Green-2 (ANG-2) is incubated for 60 min to allow equilibration and then washed with 2K EBSS. Plates are the transferred to a fluorescence plate reader (FLIPR™, Molecular Devices) for fluorescence measurement using an excitation wavelength of 490 nm and an emission wavelength of 565 nm. Compounds are pre-incubated at for 5 min at final test concentration in the presence of ouabain (30 μM) to inhibit Na+ efflux through Na+/K+ exchanger. Following the pre-incubation phase, hNav1.8 channels are stimulated with 10 μM of the pyrethroid deltamethrin to prevent channel inactivation. The assay was run for 15 min with vehicle and 30 μM tetracaine serving as negative and positive controls, respectively. The peak change in fluorescence relative to negative and positive control wells was calculated and fit with a logistic equation to determine IC50.
PatchXpress Nav 1.8 Inhibition Assay
HEK-Nav1.8 β1/β2 cells were recorded in whole cell patch-clamp using the PatchXpress automated patch clamp platforms (Molecular Devices). Cells suspensions were obtained by trypsinization of adherent monolayers, followed by gentle rocking for minimally 30 min. Compounds were prepared from 10 mM DMSO stocks.
Nav1.8 channel variants were evaluated using Protocol 1 (FIG. 2) in which cells were initially voltage clamped at a holding potential of −100 mV to maintain Nav1.8 in a closed resting state. After current amplitude becomes stable, the mid-point voltage of steady state inactivation was determined for each cell using a series of 5 sec conditioning steps to increasingly depolarized voltages (−100 to 0 mV) The holding potential was then reset to a voltage that produces ˜50% inactivation (Vhalf−set automatically via PatchXpress scripts) so that closed and inactivated channel inhibition can be assessed. Protocol 1 was run at a frequency of 0.1 Hz until current amplitude is steady (automatically determined by PatchXpress scripts). The effect of test reagent on Nav current amplitude was monitored using custom PatchXpress stability scripts which determines the timing of compound addition and washout. Data were processed and analyzed using DataXpress 2.0 (Molecular Devices). […]

SMILES | IC50
CS(=O)(=O)c1cccc(NC(=O)c2cc(C(F)(F)F)cnc2Oc2cc(F)ccc2F)c1 [Example 43, 2-(2,5-difluorophenoxy)-N-(3-methylsulfonyl-phenyl)-5-(trifluoromethyl)pyridine-3-carboxamide] | 500 to 1000 nM
CS(=O)(=O)c1cccc(NC(=O)c2cc(C(F)(F)F)cnc2Oc2ccc(F)cc2Cl)c1 [Example 36, 2-(2-chloro-4-fluoro-phenoxy)-N-(3-methylsulfonyl-phenyl)-5-(trifluoromethyl)pyridine-3-carboxamide] | < 500 nM
COc1cc(F)ccc1Oc1ncc(C(F)(F)F)cc1C(=O)Nc1cccc(N=S(C)(C)=O)c1 [Example 20, N-[3-[[dimethyl(oxo)-λ^6-sulfanylidene]amino]phenyl]-2-(4-fluoro-2-methoxy-phenoxy)-5-(trifluoromethyl)pyridine-3-carboxamide] | > 1000 nM
CN=S(C)(=O)c1cccc(NC(=O)c2cc(C(F)(F)F)cnc2Oc2ccc(OC)cc2OC)c1 (centres unmarked) [Example 171, 2-(2,4-dimethoxyphenoxy)-N-[3-(N,S-dimethylsulfonimidoyl)phenyl]-5-(trifluoromethyl)pyridine-3-carboxamide] | < 500 nM
Cn1ccc(NC(=O)c2cc(C(F)(F)F)cnc2Oc2ccc(OC(F)(F)F)cc2Cl)cc1=O [Example 150, 2-[2-chloro-4-(trifluoromethoxy)phenoxy]-N-(1-methyl-2-oxo-4-pyridyl)-5-(trifluoromethyl)pyridine-3-carboxamide] | < 500 nM
COc1cc(F)ccc1Oc1ncc(C(F)(F)F)cc1C(=O)Nc1ccncc1 [Example 6, 2-(4-fluoro-2-methoxy-phenoxy)-N-(4-pyridyl)-5-(trifluoromethyl)pyridine-3-carboxamide] | 500 to 1000 nM
COc1ccc(Oc2cc(C(F)(F)F)ncc2C(=O)Nc2ccnnc2)c(OC)c1 [Example 99, 4-(2,4-dimethoxyphenoxy)-N-pyridazin-4-yl-6-(trifluoromethyl)pyridine-3-carboxamide] | < 500 nM
CN=S(C)(=O)c1cccc(NC(=O)c2cnc(C(F)(F)F)cc2Oc2ccc(OC(F)(F)F)cc2Cl)c1 (centres unmarked) [Example 82, 4-[2-chloro-4-(trifluoromethoxy)phenoxy]-N-[3-(N,S-dimethylsulfonimidoyl)phenyl]-6-(trifluoromethyl)pyridine-3-carboxamide] | < 500 nM
COc1cc(F)ccc1Oc1nc(C(F)(F)F)ccc1C(=O)Nc1cccc(S(C)(=O)=O)c1 [Example 66, 2-(4-fluoro-2-methoxy-phenoxy)-N-(3-methylsulfonylphenyl)-6-(trifluoromethyl)pyridine-3-carboxamide] | < 500 nM
Cc1cccc(C)c1Oc1ncc(C(F)(F)F)cc1C(=O)Nc1cccc(S(C)(=O)=O)c1 [Example 33, 2-(2,6-dimethylphenoxy)-N-(3-methylsulfonylphenyl)-5-(trifluoromethyl)pyridine-3-carboxamide] | > 1000 nM
NS(=O)(=O)c1cccc(NC(=O)c2cc(C(F)(F)F)cnc2Oc2ccc(OC(F)(F)F)cc2)c1 [Example 122, N-(3-sulfamoylphenyl)-2-[4-(trifluoromethoxy)phenoxy]-5-(trifluoromethyl)pyridine-3-carboxamide] | < 500 nM
NC(=O)c1cccc(NC(=O)c2cc(C(F)(F)F)cnc2Oc2ccc(OC(F)(F)F)cc2Cl)c1 [Example 148, N-(3-carbamoylphenyl)-2-[2-chloro-4-(trifluoromethoxy)phenoxy]-5-(trifluoromethyl)pyridine-3-carboxamide] | 500 to 1000 nM
CS(=O)(=O)c1cccc(NC(=O)c2cc(C(F)(F)F)cnc2Oc2ccc(C(F)(F)F)nc2)c1 [Example 57, N-(3-methylsulfonyl-phenyl)-5-(trifluoromethyl)-2-[[6-(trifluoromethyl)-3-pyridyl]oxy]pyridine-3-carboxamide] | > 1000 nM

Results, then the compound that gave them:

IC50 | SMILES
> 1000 nM | COc1cc(F)ccc1Oc1ncc(C(F)(F)F)cc1C(=O)Nc1ccc2ncsc2c1 [Example 1, N-(1,3-benzothiazol-6-yl)-2-(4-fluoro-2-methoxy-phenoxy)-5-(trifluoromethyl)pyridine-3-carboxamide]
< 500 nM | CS(=N)(=O)c1cccc(NC(=O)c2cc(C(F)(F)F)cnc2Oc2ccccc2Cl)c1 (centres unmarked) [Example 62, 2-(2-chlorophenoxy)-N-[3-(methylsulfonimidoyl)phenyl]-5-(trifluoromethyl)pyridine-3-carboxamide]
< 500 nM | CS(=N)(=O)c1cccc(NC(=O)c2cc(C(F)(F)F)cnc2Oc2ccc(F)cc2F)c1 (centres unmarked) [Example 174, 2-(2,4-difluorophenoxy)-N-[3-(methylsulfonimidoyl)phenyl]-5-(trifluoromethyl)pyridine-3-carboxamide]
< 500 nM | CS(=O)(=O)c1cccc(NC(=O)c2cc(C(F)(F)F)cnc2Oc2ccc(OC(F)(F)F)cc2Cl)c1 [Example 142, 2-[2-chloro-4-(trifluoromethoxy)phenoxy]-N-(3-methylsulfonylphenyl)-5-(trifluoromethyl)pyridine-3-carboxamide]
< 500 nM | CS(=O)(=O)c1ccc(F)c(NC(=O)c2cc(C(F)(F)F)cnc2Oc2ccc(OC(F)(F)F)cc2Cl)c1 [Example 162, 2-[2-chloro-4-(trifluoromethoxy)phenoxy]-N-(2-fluoro-5-methylsulfonyl-phenyl)-5-(trifluoromethyl)pyridine-3-carboxamide]
> 1000 nM | COc1ccc(Oc2ncc(C(F)(F)F)cc2C(=O)Nc2ccnnc2)c(OC)c1 [Example 173, 2-(2,4-dimethoxyphenoxy)-N-pyridazin-4-yl-5-(trifluoromethyl)pyridine-3-carboxamide]
> 1000 nM | CCCc1ccccc1Oc1ncc(C(F)(F)F)cc1C(=O)Nc1cccc(S(C)(=O)=O)c1 [Example 24, N-(3-methylsulfonylphenyl)-2-(2-propylphenoxy)-5-(trifluoromethyl)pyridine-3-carboxamide]
< 500 nM | COc1ccc(Oc2ncc(C(F)(F)F)cc2C(=O)Nc2ccc[n+]([O-])c2)c(Cl)c1 [Example 138, 3-(2-(2-chloro-4-methoxyphenoxy)-5-(trifluoromethyl)nicotinamido)pyridine 1-oxide]
< 500 nM | CS(=O)(=O)c1cccc(NC(=O)c2cc(C(F)(F)F)cnc2Oc2ccc(F)cc2F)c1 [Example 48, 2-(2,4-difluorophenoxy)-N-(3-methylsulfonyl-phenyl)-5-(trifluoromethyl)pyridine-3-carboxamide]
> 1000 nM | COc1cc(F)ccc1Oc1ncc(C(F)(F)F)cc1C(=O)Nc1ccc(C#N)nc1 [Example 7, N-(6-cyano-3-pyridyl)-2-(4-fluoro-2-methoxy-phenoxy)-5-(trifluoromethyl)pyridine-3-carboxamide]
< 500 nM | O=C(Nc1cccc(CO)c1)c1cc(C(F)(F)F)cnc1Oc1ccc(OC(F)(F)F)cc1Cl [Example 160, 2-[2-chloro-4-(trifluoromethoxy)phenoxy]-N-[3-(hydroxymethyl)phenyl]-5-(trifluoromethyl)pyridine-3-carboxamide]
< 500 nM | O=C(Nc1ccnc(F)c1)c1cc(C(F)(F)F)cnc1Oc1ccc(OC(F)(F)F)cc1Cl [Example 165, 2-[2-chloro-4-(trifluoromethoxy)phenoxy]-N-(2-fluoro-4-pyridyl)-5-(trifluoromethyl)pyridine-3-carboxamide]
< 500 nM | CS(=O)(=O)c1cccc(NC(=O)c2cc(C(F)(F)F)cnc2Oc2ccc(OC(F)(F)F)c(F)c2)c1 [Example 40, 2-[3-fluoro-4-(trifluoromethoxy)phenoxy]-N-(3-methylsulfonyl-phenyl)-5-(trifluoromethyl)pyridine-3-carboxamide]
